Laboratory results taken from patent US9315503B2, “Kinase inhibitors” (CHIESI FARMACEUTICI S.p.A., priority 2011, dated 2016).
Counter-ions that a name gives are not always drawn.

Experiments:
[1] = target: T1, p38alpha (Homo sapiens, UniProt Q16539); experiment: P38Alpha enzyme inhibition assay (Alphascreen kinase activity assay); type: biochemical; conditions: 100 pM p38alpha, 250 μM ATP, 2 hours pre-incubation at 25° C., read-out: p38α inhibition (IC50 values)
T1 construct: purchased Invitrogen PV3304
Description: P38Alpha Enzyme Inhibition Assay.
The inhibitory activity of compounds was determined using an Alphascreen® (Perkin Elmer) based kinase activity assay. Kinase reactions consisted of 25 mM HEPES pH 7.5, 10 mM MgCl2, 100 μM Na3VO4, 2 mM DTT, 0.05 mg/ml Tween 20, 100 pM p38alpha (Invitrogen, PV3304), 1% DMSO and 0.3 μg/ml ATF-2 fusion protein (New England Biolabs, 9224). Compounds were incubated under these conditions for 2 hours, at 25° C., prior to the initiation of the kinase activity by the addition of the 250 μM ATP. Reaction volumes were 20 uL. After 1 hr at 25° C. reactions were stopped by the adding 10 uL of 25 mM HEPES pH 7.5 containing 62.5 mM EDTA, 0.05% Triton X-100, 10% BSA and 0.83 ng/uL anti-phospho-ATF2 antibody (Abeam, ab28812). Detection was performed by measuring luminescence following the addition of Alphascreen Donor beads (Perkin Elmer 6765300) and Protein A Alphascreen Acceptor beads (Perkin Elmer 6760137), both at a final concentration of 20 ug/ml. IC50 values were determined from concentration-response curves.

[2] = system: LPS-stimulated TNFα release from PBMCs; experiment: LPS-stimulated PBMC TNFα release assay; type: cell-based; conditions: inhibition of TNFα release, human PBMCs, LPS 10 ng/ml, 18 h, ELISA, read-out: p38α inhibition (IC50 values)
Description: LPS-Stimulated PBMC TNFα Release Assay.
Peripheral Blood Mononuclear Cells (PBMCs) were isolated from healthy human volunteer blood using a standard density gradient centrifugation technique. Citrated blood was placed onto Histopaque™ and centrifuged. The PBMCs were removed from the density gradient interface and washed in phosphate buffered saline (PBS). The PBMCs were suspended in RPMI 1640 medium (without serum), dispensed into a 96-well plate and incubated at 37° C. for 3 h in a humidified incubator. After incubation, the medium was replaced (with medium containing 1% foetal bovine serum) and the plate incubated at 37° C., for 1 h, in the presence of test compound or the appropriate vehicle. LPS (10 ng/ml), or an appropriate vehicle control, was then added to the cells and the plate returned to the incubator for 18 h. Cell-free supernatants were removed and assayed for TNFα levels using an ELISA kit from R&D Systems.
A dose response curve to each test compound was performed and the effect of compound in each experiment was expressed as a percentage inhibition of the control TNFα release. Dose response curves were plotted and compound potency (IC50) was determined. Compounds were tested in at least three separate experiments.

T1 sequence (Q16539 whole entry): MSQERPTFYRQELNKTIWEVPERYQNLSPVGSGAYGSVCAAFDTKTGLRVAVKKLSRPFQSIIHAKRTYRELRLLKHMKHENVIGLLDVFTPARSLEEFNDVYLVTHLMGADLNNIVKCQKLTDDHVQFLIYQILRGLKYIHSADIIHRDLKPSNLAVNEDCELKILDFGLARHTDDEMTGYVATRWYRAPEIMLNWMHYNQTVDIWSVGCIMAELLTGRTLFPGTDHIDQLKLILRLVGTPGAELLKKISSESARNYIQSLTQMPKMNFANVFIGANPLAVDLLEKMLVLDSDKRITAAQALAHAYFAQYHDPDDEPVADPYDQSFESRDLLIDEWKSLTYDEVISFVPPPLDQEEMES

Row | Compound | IC50 [1] [nM] | IC50 [2] [nM]
1 | Cc1ccc(-n2nc(C(C)(C)C)cc2NC(=O)N[C@H]2CC[C@@H](Oc3ccc4nnc(CCN5CCCC5)n4c3)c3ccccc32)cc1 [Example 1, 1-(5-tert-Butyl-2-p-tolyl-2H-pyrazol-3-yl)-3-{(1S,4R)-4-[3-(2-pyrrolidin-1-yl-ethyl)-[1,2,4]triazolo[4,3-a]pyridin-6-yloxy]-1,2,3,4-tetrahydro-naphthalen-1-yl}-urea] | < 10 | 10 to 100
2 | Cc1ccc(-n2nc(C(C)(C)C)cc2NC(=O)N[C@H]2CC[C@@H](Oc3ccc4nnc(CCN5CCN(C)CC5)n4c3)c3ccccc32)cc1 [Example 2, 1-(5-tert-Butyl-2-p-tolyl-2H-pyrazol-3-yl)-3-((1S,4R)-4-{3-[2-(4-methyl-piperazin-1-yl)-ethyl]-[1,2,4]triazolo[4,3-a]pyridin-6-yloxy}-1,2,3,4-tetrahydro-naphthalen-1-yl)-urea formate salt] | < 10 | 10 to 100
3 | Cc1ccc(-n2nc(C(C)(C)C)cc2NC(=O)N[C@H]2CC[C@@H](Oc3ccc4nnc(N5CCCCC5)n4c3)c3ccccc32)cc1 [Example 3] | < 10 | < 10
4 | Cc1ccc(-n2nc(C(C)(C)C)cc2NC(=O)N[C@H]2CC[C@@H](Oc3ccc4nnc(CN5CCNCC5)n4c3)c3ccccc32)cc1 [Example 7, 1-(5-tert-Butyl-2-p-tolyl-2H-pyrazol-3-yl)-3-[(1S,4R)-4-(3-piperazin-1-ylmethyl-[1,2,4]triazolo[4,3-a]pyridin-6-yloxy)-1,2,3,4-tetrahydro-naphthalen-1-yl]-urea] | < 10 | 100 to 1000
5 | Cc1ccc(-n2nc(C(C)(C)C)cc2NC(=O)N[C@H]2CC[C@@H](Oc3ccc4nnc(NC(C)C)n4c3)c3ccccc32)cc1 [Example 8, 1-(5-tert-Butyl-2-p-tolyl-2H-pyrazol-3-yl)-3-[(1S,4R)-4-(3-isopropylamino-[1,2,4]triazolo[4,3-a]pyridin-6-yloxy)-1,2,3,4-tetrahydro-naphthalen-1-yl]-urea] | < 10 | < 10
6 | Cc1ccc(-n2nc(C(C)(C)C)cc2NC(=O)N[C@H]2CC[C@@H](Oc3ccc(C#N)nc3)c3ccccc32)cc1 [Example 9, 1-(5-tert-Butyl-2-p-tolyl-2H-pyrazol-3-yl)-3-[(1S,4R)-4-(6-cyano-pyridin-3-yloxy)-1,2,3,4-tetrahydro-naphthalen-1-yl]-urea] | < 10 | 100 to 1000
7 | Cc1ccc(-n2nc(C(C)(C)C)cc2NC(=O)N[C@H]2CC[C@@H](Oc3ccc4nnc(CN5CCN(C)CC5)n4c3)c3ccccc32)cc1 [Example 14, 1-(5-tert-Butyl-2-p-tolyl-2H-pyrazol-3-yl)-3-{(1S,4R)-4-[3-(4-methyl-piperazin-1-ylmethyl)-[1,2,4]triazolo[4,3-a]pyridin-6-yloxy]-1,2,3,4-tetrahydro-naphthalen-1-yl}-urea formate salt] |  | 10 to 100
8 | Cc1ccc(-n2nc(C(C)(C)C)cc2NC(=O)N[C@H]2CC[C@@H](Oc3ccc4nnc(CN5CCOCC5)n4c3)c3ccccc32)cc1 [Example 15, 1-(5-tert-Butyl-2-p-tolyl-2H-pyrazol-3-yl)-3-[(1S,4R)-4-(3-morpholin-4-ylmethyl-[1,2,4]triazolo[4,3-a]pyridin-6-yloxy)-1,2,3,4-tetrahydro-naphthalen-1-yl]-urea formate salt] |  | < 10
9 | Cc1ccc(-n2nc(C(C)(C)C)cc2NC(=O)N[C@H]2CC[C@@H](Oc3ccc4nnc(CN5CCCC5)n4c3)c3ccccc32)cc1 [Example 16, 1-(5-tert-Butyl-2-p-tolyl-2H-pyrazol-3-yl)-3-[(1S,4R)-4-(3-pyrrolidin-1-ylmethyl-[1,2,4]triazolo[4,3-a]pyridin-6-yloxy)-1,2,3,4-tetrahydro-naphthalen-1-yl]-urea] |  | < 10
10 | C[C@@H]1CCC[C@H](C)N1c1nnc2ccc(O[C@@H]3CC[C@H](NC(=O)NC4CC4)c4ccccc43)cn12 [Example 117, 1-Cyclopropyl-3-{(1S,4R)-4-[3-((2S,6R)-2,6-dimethyl-piperidin-1-yl)-[1,2,4]triazolo[4,3-a]pyridin-6-yloxy]-1,2,3,4-tetrahydro-naphthalen-1-yl}-urea formate salt] |  | < 10
11 | C[C@H]1CCCCN1c1nnc2ccc(O[C@@H]3CC[C@H](NC(=O)Nc4cc(C(C)(C)C)nn4-c4cccc(CN5CCCC5)c4)c4ccccc43)cn12 [Example 171, 1-[5-tert-Butyl-2-(3-pyrrolidin-1-ylmethyl-phenyl)-2H-pyrazol-3-yl]-3-{(1S,4R)-4-[3-((S)-2-methyl-piperidin-1-yl)-[1,2,4]triazolo[4,3-a]pyridin-6-yloxy]-1,2,3,4-tetrahydro-naphthalen-1-yl}-urea formate salt] | < 10 | 
12 | C[C@H]1CCCCN1c1nnc2ccc(O[C@@H]3CC[C@H](NC(=O)Nc4cc(C(C)(C)C)nn4-c4ccc(CN5CCOCC5)cc4)c4ccccc43)cn12 [Example 176, 1-[5-tert-Butyl-2-(4-morpholin-4-ylmethyl-phenyl)-2H-pyrazol-3-yl]-3-{(1S,4R)-4-[3-((S)-2-methyl-piperidin-1-yl)-[1,2,4]triazolo[4,3-a]pyridin-6-yloxy]-1,2,3,4-tetrahydro-naphthalen-1-yl}-urea] | < 10 | 
13 | C[C@H]1CCCCN1c1nnc2ccc(O[C@@H]3CC[C@H](NC(=O)Nc4cc(C(C)(C)C)nn4-c4ccc(CN5CCN(C)CC5)cc4)c4ccccc43)cn12 [Example 178, 1-{5-tert-Butyl-2-[4-(4-methyl-piperazin-1-ylmethyl)-phenyl]-2H-pyrazol-3-yl}-3-{(1S,4R)-4-[3-((S)-2-methyl-piperidin-1-yl)-[1,2,4]triazolo[4,3-a]pyridin-6-yloxy]-1,2,3,4-tetrahydro-naphthalen-1-yl}-urea partial formate salt] | < 10 | 
14 | C[C@H]1CCCCN1c1nnc2ccc(O[C@@H]3CC[C@H](NC(=O)Nc4cc(C(C)(C)C)nn4-c4ccc(CN5CCCC5)cc4)c4ccccc43)cn12 [Example 181, 1-[5-tert-Butyl-2-(4-pyrrolidin-1-ylmethyl-phenyl)-2H-pyrazol-3-yl]-3-{(1S,4R)-4-[3-((S)-2-methyl-piperidin-1-yl)-[1,2,4]triazolo[4,3-a]pyridin-6-yloxy]-1,2,3,4-tetrahydro-naphthalen-1-yl}-urea formate salt] | < 10 | 
15 | C[C@H]1CCCCN1c1nnc2ccc(O[C@@H]3CC[C@H](NC(=O)Nc4cc(C(C)(C)C)nn4-c4ccc(CN5CCCCC5)cc4)c4ccccc43)cn12 [Example 182, 1-[5-tert-Butyl-2-(4-piperidin-1-ylmethyl-phenyl)-2H-pyrazol-3-yl]-3-{(1S,4R)-4-[3-((S)-2-methyl-piperidin-1-yl)-[1,2,4]triazolo[4,3-a]pyridin-6-yloxy]-1,2,3,4-tetrahydro-naphthalen-1-yl}-urea formate salt] | < 10 | 
16 | C[C@H]1CCCCN1c1nnc2ccc(O[C@@H]3CC[C@H](NC(=O)Nc4cc(C(C)(C)C)nn4-c4ccc(CN5CCC(F)CC5)cc4)c4ccccc43)cn12 [Example 183, 1-{5-tert-Butyl-2-[4-(4-fluoro-piperidin-1-ylmethyl)-phenyl]-2H-pyrazol-3-yl}-3-{(1S,4R)-4-[3-((S)-2-methyl-piperidin-1-yl)-[1,2,4]triazolo[4,3-a]pyridin-6-yloxy]-1,2,3,4-tetrahydro-naphthalen-1-yl}-urea formate salt] | < 10 | 
17 | CCN(C)Cc1ccc(-n2nc(C(C)(C)C)cc2NC(=O)N[C@H]2CC[C@@H](Oc3ccc4nnc(N5CCCC[C@@H]5C)n4c3)c3ccccc32)cc1 [Example 184, 1-(5-tert-Butyl-2-{4-[(ethyl-methyl-amino)-methyl]-phenyl}-2H-pyrazol-3-yl)-3-{(1S,4R)-4-[3-((S)-2-methyl-piperidin-1-yl)-[1,2,4]triazolo[4,3-a]pyridin-6-yloxy]-1,2,3,4-tetrahydro-naphthalen-1-yl}-urea formate salt] | < 10 | 
18 | COCCN(C)Cc1ccc(-n2nc(C(C)(C)C)cc2NC(=O)N[C@H]2CC[C@@H](Oc3ccc4nnc(N5CCCC[C@@H]5C)n4c3)c3ccccc32)cc1 [Example 185, 1-[5-tert-Butyl-2-(4-{[(2-methoxy-ethyl)-methyl-amino]-methyl}-phenyl)-2H-pyrazol-3-yl]-3-{(1S,4R)-4-[3-((S)-2-methyl-piperidin-1-yl)-[1,2,4]triazolo[4,3-a]pyridin-6-yloxy]-1,2,3,4-tetrahydro-naphthalen-1-yl}-urea formate salt] | < 10 | 
